{"source": "patent US11780830B2", "about": "“Triazolone derivatives or salts thereof and pharmaceutical compositions comprising the same” (YUHAN CORPORATION, priority 2018, dated 2023)", "format_in_all_cases": "biochemical", "key": {"recombinant human VAP-1": {"target": "T1, recombinant human VAP-1 (Homo sapiens, UniProt Q16853)", "T1 construct": "purchased R&D systems", "T1 sequence (Q16853 1-763)": "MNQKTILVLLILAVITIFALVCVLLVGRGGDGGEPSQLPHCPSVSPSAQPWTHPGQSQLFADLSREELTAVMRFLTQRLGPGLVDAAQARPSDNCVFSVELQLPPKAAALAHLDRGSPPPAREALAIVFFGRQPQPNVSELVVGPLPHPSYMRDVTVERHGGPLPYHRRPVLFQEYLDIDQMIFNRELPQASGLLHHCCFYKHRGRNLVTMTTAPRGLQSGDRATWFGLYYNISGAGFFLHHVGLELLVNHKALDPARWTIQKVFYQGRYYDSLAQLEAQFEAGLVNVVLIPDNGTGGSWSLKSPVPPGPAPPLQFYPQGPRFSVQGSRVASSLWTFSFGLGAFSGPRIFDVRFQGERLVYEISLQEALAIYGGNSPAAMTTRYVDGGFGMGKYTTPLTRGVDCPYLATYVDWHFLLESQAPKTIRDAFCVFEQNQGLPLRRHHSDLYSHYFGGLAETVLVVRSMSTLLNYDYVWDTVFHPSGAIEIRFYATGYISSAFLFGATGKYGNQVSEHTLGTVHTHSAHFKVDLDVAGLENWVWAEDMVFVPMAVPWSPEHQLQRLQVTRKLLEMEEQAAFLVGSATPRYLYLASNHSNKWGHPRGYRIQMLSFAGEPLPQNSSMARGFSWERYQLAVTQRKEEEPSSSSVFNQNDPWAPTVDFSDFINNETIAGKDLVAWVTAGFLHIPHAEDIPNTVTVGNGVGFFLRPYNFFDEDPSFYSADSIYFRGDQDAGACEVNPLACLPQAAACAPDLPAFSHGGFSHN", "experiment": "Activity on recombinant human VAP-1, HRP-coupled Amplex Red hydrogen peroxide assay", "settings": "substrate 1 mM benzylamine; compound incubated with enzyme at 37° C. for 30 minutes; pH 7.4; read-out: Inhibitory Activity (IC50, nM) human VAP-1", "method": "(§1) The compounds according to the present technology were evaluated in terms of activity on recombinant human VAP-1 (R&D systems) by measuring the level of hydrogen peroxide in horseradish peroxidase (HRP)-coupled reaction using Amplex Red Hydrogen Peroxide Assay Kit (Molecular Probes, Invitrogen, USA). The experiment was carried out at room temperature using benzylamine as a substrate. In the HRP-coupled reaction, hydrogen peroxide oxidation of 10-acetyl-3,7-dihydroxyphenoxazine (Amplex Red reagent) produces resorufin, which is a highly fluorescent compound. Briefly, the test compound was dissolved in dimethyl sulfoxide (DMSO) at a concentration of 20 mM. The dose-response assessment was made by 1:3 serial dilution in DMSO, thereby creating an 8 point curve. The concentration of the upper part was controlled according to the efficacy of the compounds, followed by dilution with a reaction buffer solution to obtain a final DMSO concentration less than 1%. To each well of a 96 black well plate, human VAP-1 purified in 50 mM sodium phosphate buffer solution (pH7.4) was added. The test compounds dissolved in DMSO were incubated with the human VAP-1 enzymes at 37° C. for 30 minutes. After 30-minute incubation, each well is added with a reaction mixture containing 200 uM Amplex Red reagent prepared from 50 mM sodium phosphate buffer solution (pH 7.4), 1 mM benzylamine, and 1 U/mL HRP. Fluorescence intensity was measured at several time points during 1-2 hours using a microplate reader (Flexstation3, Molecular Devices) under the wavelength condition exciting at 544 nm and reading the emission at 590 nm. The inhibitory effect of the compounds was measured as a decrease (%) in the signal rate as compared to the control group without any inhibitor (only diluted DMSO). Data was fixed to a logistic model with four variables and IC50 value was calculated using GraphPad Prism program."}, "[1]": {"target": "T2, recombinant human MAO-A (monoamine oxidase-A) (Homo sapiens, UniProt P21397)", "T2 construct": "purchased Sigma-Aldrich", "T2 sequence (P21397 1-527)": "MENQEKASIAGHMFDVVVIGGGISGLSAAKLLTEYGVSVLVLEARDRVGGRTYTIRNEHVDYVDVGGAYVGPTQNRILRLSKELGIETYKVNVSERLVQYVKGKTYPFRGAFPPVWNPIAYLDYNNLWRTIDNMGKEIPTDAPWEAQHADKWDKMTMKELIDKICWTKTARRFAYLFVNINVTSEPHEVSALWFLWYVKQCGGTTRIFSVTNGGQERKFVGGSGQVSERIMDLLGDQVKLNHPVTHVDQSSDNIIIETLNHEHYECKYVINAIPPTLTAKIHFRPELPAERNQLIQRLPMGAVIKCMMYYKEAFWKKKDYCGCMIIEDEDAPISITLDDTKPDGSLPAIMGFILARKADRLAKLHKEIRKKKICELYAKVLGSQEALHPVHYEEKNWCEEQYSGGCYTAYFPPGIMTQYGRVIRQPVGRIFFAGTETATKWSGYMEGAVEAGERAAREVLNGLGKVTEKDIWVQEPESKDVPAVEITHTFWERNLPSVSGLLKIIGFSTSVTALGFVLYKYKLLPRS", "experiment": "Activity on recombinant human MAO-A, method similar to the VAP-1 assay", "settings": "substrate 0.5 mM tyramine; read-out: Inhibitory Activity (IC50, nM) MAO-A", "method": "as §1\n(§2) In addition, the compounds according to the present technology were evaluated in terms of activity on a recombinant human MAO-A (monoamine oxidase-A, Sigma-Aldrich) and a recombinant human MAO-B (monoamine oxidase-B, Sigma-Aldrich) by using as substrates, 0.5 mM tyramine and 1 mM benzylamine, respectively, with a method similar to the activity evaluation method for recombinant human VAP-1. The compounds according to the present technology were also evaluated in terms of activity on a recombinant human DAO (diamine oxidase, R&D systems) by using as a substrate 1 mM putrescine with a method similar to the activity evaluation method for recombinant human VAP-1."}, "[2]": {"target": "T3, recombinant human DAO (diamine oxidase) (Homo sapiens, UniProt P19801)", "T3 construct": "purchased R&D systems", "T3 sequence (P19801 20-751)": "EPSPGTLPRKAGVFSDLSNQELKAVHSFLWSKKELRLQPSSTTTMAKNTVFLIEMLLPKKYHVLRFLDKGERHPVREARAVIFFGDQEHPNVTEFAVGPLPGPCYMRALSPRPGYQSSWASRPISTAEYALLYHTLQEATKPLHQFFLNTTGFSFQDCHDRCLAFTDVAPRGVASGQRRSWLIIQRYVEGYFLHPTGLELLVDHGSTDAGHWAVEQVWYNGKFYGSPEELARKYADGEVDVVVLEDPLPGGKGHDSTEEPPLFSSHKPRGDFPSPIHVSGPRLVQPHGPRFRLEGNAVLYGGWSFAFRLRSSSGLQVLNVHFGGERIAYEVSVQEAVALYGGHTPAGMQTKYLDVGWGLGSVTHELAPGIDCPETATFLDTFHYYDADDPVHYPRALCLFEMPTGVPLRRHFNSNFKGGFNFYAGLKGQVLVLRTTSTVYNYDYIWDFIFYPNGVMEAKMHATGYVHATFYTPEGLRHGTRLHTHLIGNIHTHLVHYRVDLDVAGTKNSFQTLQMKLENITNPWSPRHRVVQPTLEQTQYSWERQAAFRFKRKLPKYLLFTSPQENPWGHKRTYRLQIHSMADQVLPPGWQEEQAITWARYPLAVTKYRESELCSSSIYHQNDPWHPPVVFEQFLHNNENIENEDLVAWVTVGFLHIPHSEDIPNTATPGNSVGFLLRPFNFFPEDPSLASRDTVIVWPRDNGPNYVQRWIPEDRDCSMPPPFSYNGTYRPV", "experiment": "Activity on recombinant human DAO, method similar to the VAP-1 assay", "settings": "substrate 1 mM putrescine; read-out: Inhibitory Activity (IC50, nM) DAO", "method": "as §1, §2"}}, "note": "Structures can show the parent of a compound that is named as a salt.", "data": [{"smiles": "NC/C(=C/F)Cn1ncn(Cc2ccc(-c3ccc(C(=O)N4CCOCC4)cc3)s2)c1=O", "note": "[Example 26, 2-[(2Z)-2-(aminomethyl)-3-fluoroprop-2-en-1-yl]-4-(5-[4-(morpholin-4-ylcarbonyl)phenyl]thiophen-2-ylmethyl)-2,4-dihydro-3H-1,2,4-triazol-3-one hydrochloride]", "values": [{"measurement": "IC50", "setting": "recombinant human VAP-1", "result": 1.4, "unit": "nM"}]}, {"smiles": "NC/C(=C/F)Cn1ncn(Cc2ccc(-c3ccc(-c4nnc[nH]4)cc3)s2)c1=O", "note": "[Example 30, 2-[(2Z)-2-(aminomethyl)-3-fluoroprop-2-en-1-yl]-4-(5-[4-(4H-1,2,4-triazol-3-yl)phenyl]thiophen-2-ylmethyl)-2,4-dihydro-3H-1,2,4-triazol-3-one]", "values": [{"measurement": "IC50", "setting": "recombinant human VAP-1", "result": 0.97, "unit": "nM"}]}, {"smiles": "NC/C(=C/F)Cn1ncn(Cc2ccc(-c3cccc(-c4nnc[nH]4)c3)s2)c1=O", "note": "[Example 32, 2-[(2Z)-2-(aminomethyl)-3-fluoroprop-2-en-1-yl]-4-(5-[3-(4H-1,2,4-triazol-3-yl)phenyl]thiophen-2-ylmethyl)-2,4-dihydro-3H-1,2,4-triazol-3-one]", "values": [{"measurement": "IC50", "setting": "recombinant human VAP-1", "result": 1.2, "unit": "nM"}]}, {"smiles": "CC(=O)Nc1cc(-c2ccc(Cn3cnn(C/C(=C\\F)CN)c3=O)s2)ccn1", "note": "[Example 41, N-4-[5-(1-[(2Z)-2-(aminomethyl)-3-fluoroprop-2-en-1-yl]-5-oxo-1,5-dihydro-4H-1,2,4-triazol-4-ylmethyl)thiophen-2-yl]pyridin-2-ylacetamide hydrochloride]", "values": [{"measurement": "IC50", "setting": "recombinant human VAP-1", "result": 1.3, "unit": "nM"}]}, {"smiles": "COc1ccc(-c2ccc(Cn3cnn(C/C(=C\\F)CN)c3=O)s2)cn1", "note": "[Example 44, 2-[(2Z)-2-(aminomethyl)-3-fluoroprop-2-en-1-yl]-4-[5-(6-methoxypyridin-3-yl)thiophen-2-yl]methyl-2,4-dihydro-3H-1,2,4-triazol-3-one hydrochloride]", "values": [{"measurement": "IC50", "setting": "recombinant human VAP-1", "result": 1.9, "unit": "nM"}]}, {"smiles": "NC/C(=C/F)Cn1ncn(Cc2ccc(-c3ccc(C(F)(F)F)nc3)s2)c1=O", "note": "[Example 48, 2-[(2Z)-2-(aminomethyl)-3-fluoroprop-2-en-1-yl]-4-(5-[6-(trifluoromethyl)pyridin-3-yl]thiophen-2-ylmethyl)-2,4-dihydro-3H-1,2,4-triazol-3-one hydrochloride]", "values": [{"measurement": "IC50", "setting": "recombinant human VAP-1", "result": 1.6, "unit": "nM"}]}, {"smiles": "NC/C(=C/F)Cn1ncn(Cc2ccc(-c3ccc(N4CCOCC4)nc3)s2)c1=O", "note": "[Example 51, 2-[(2Z)-2-(aminomethyl)-3-fluoroprop-2-en-1-yl]-4-(5-[6-(morpholin-4-yl)pyridin-3-yl]thiophen-2-ylmethyl)-2,4-dihydro-3H-1,2,4-triazol-3-one hydrochloride]", "values": [{"measurement": "IC50", "setting": "recombinant human VAP-1", "result": 0.75, "unit": "nM"}]}, {"smiles": "COCCNc1ncc(-c2ccc(Cn3cnn(C/C(=C/F)CN)c3=O)s2)cn1", "note": "[Example 53, 2-[(2E)-2-(aminomethyl)-3-fluoroprop-2-en-1-yl]-4-[(5-2-[(2-methoxyethyl)amino]pyrimidin-5-ylthiophen-2-yl)methyl]-2,4-dihydro-3H-1,2,4-triazol-3-one hydrochloride]", "values": [{"measurement": "IC50", "setting": "recombinant human VAP-1", "result": 2.6, "unit": "nM"}, {"measurement": "IC50", "setting": "[1]", "result": "> 100000", "unit": "nM"}, {"measurement": "IC50", "setting": "[2]", "result": 380, "unit": "nM"}]}, {"smiles": "N#Cc1ncc(-c2ccc(Cn3cnn(C/C(=C/F)CN)c3=O)s2)cn1", "note": "[Example 54, 5-[5-(1-[(2E)-2-(aminomethyl)-3-fluoroprop-2-en-1-yl]-5-oxo-1,5-dihydro-4H-1,2,4-triazol-4-ylmethyl)thiophen-2-yl]pyrimidine-2-carbonitrile hydrochloride]", "values": [{"measurement": "IC50", "setting": "recombinant human VAP-1", "result": 1.7, "unit": "nM"}, {"measurement": "IC50", "setting": "[1]", "result": "> 10000", "unit": "nM"}, {"measurement": "IC50", "setting": "[2]", "result": 110, "unit": "nM"}]}, {"smiles": "Cc1cc(-c2ccc(Cn3cnn(C/C(=C\\F)CN)c3=O)s2)cc2c1NC(=O)CC2", "note": "[Example 76, 6-[5-(1-[(2Z)-2-(aminomethyl)-3-fluoroprop-2-en-1-yl]-5-oxo-1,5-dihydro-4H-1,2,4-triazol-4-ylmethyl)thiophen-2-yl]-8-methyl-3,4-dihydroquinolin-2(1H)-one hydrochloride]", "values": [{"measurement": "IC50", "setting": "recombinant human VAP-1", "result": 2.7, "unit": "nM"}]}, {"smiles": "NC/C(=C/F)Cn1ncn(Cc2ccc(-c3ccc4c(c3)NC(=O)CO4)s2)c1=O", "note": "[Example 89, 6-[5-(1-[(2Z)-2-(aminomethyl)-3-fluoroprop-2-en-1-yl]-5-oxo-1,5-dihydro-4H-1,2,4-triazol-4-ylmethyl)thiophen-2-yl]-2H-1,4-benzoxazin-3(4H)-one hydrochloride]", "values": [{"measurement": "IC50", "setting": "recombinant human VAP-1", "result": 1.9, "unit": "nM"}]}, {"smiles": "NC/C(=C/F)Cn1ncn(Cc2ccc(-c3ccc4c(c3)NC(=O)OC4)s2)c1=O", "note": "[Example 99, 7-[5-(1-[(2Z)-2-(aminomethyl)-3-fluoroprop-2-en-1-yl]-5-oxo-1,5-dihydro-4H-1,2,4-triazol-4-ylmethyl)thiophen-2-yl]-1,4-dihydro-2H-3,1-benzoxazin-2-one hydrochloride]", "values": [{"measurement": "IC50", "setting": "recombinant human VAP-1", "result": 1.2, "unit": "nM"}]}, {"smiles": "NC/C(=C\\F)Cn1ncn(Cc2ccc(/C=C/c3cnc4[nH]c(=O)oc4c3)s2)c1=O", "note": "[Example 122, 6-[(E)-2-[5-[[1-[(E)-2-(aminomethyl)-3-fluoro-allyl]-5-oxo-1,2,4-triazol-4-yl]methyl]-2-thienyl]vinyl]-3H-oxazolo[4,5-b]pyridin-2-one hydrochloride]", "values": [{"measurement": "IC50", "setting": "recombinant human VAP-1", "result": 1, "unit": "nM"}, {"measurement": "IC50", "setting": "[1]", "result": "> 100000", "unit": "nM"}, {"measurement": "IC50", "setting": "[2]", "result": 680, "unit": "nM"}]}, {"smiles": "NC/C(=C/F)Cn1ncn(CCc2cccs2)c1=O", "note": "[Example 140, 2-[(2Z)-2-(aminomethyl)-3-fluoroprop-2-en-1-yl]-4-[2-(thiophen-2-yl)ethyl]-2,4-dihydro-3H-1,2,4-triazol-3-one]", "values": [{"measurement": "IC50", "setting": "recombinant human VAP-1", "result": 31, "unit": "nM"}]}]}
